Test: Assay (%) test of APIs in cream, stability study, HPLC method
Type: physicochemical
Method: The stability of the product is confirmed by the stability studies performed for 3/6 months as per ICH guidelines.
APIs-stability experiments were carried out (see tables 3-20) using several products that are representative of the present invention. Tests were carried out to observe (or measure as appropriate) the physical appearance of the product, the pH value and assay of the APIs over a period of time. […] Betamethasone Valerate—0.12% (w/w) • ii. Fluticasone Propionate—0.05% (w/w) • iii. Mometasone Furoate—0.1% (w/w) • iv. Dexamethasone Acetate—0.1% (w/w) • v. Hydrocortisone Acetate—1.0% (w/w) • vi. Clobetasol Propionate—0.05% (w/w) • vii. Beclomethasone Dipropionate—0.025% (w/w) • viii. Betamethasone Dipropionate—0.05% (w/w) wherein all percentages are with respect to the final formulation.
The product used for the Stability Studies tests contained approximately 10% extra APIs (overages).

Compound: CCC(=O)O[C@]1(C(=O)CCl)[C@@H](C)C[C@H]2[C@@H]3CCC4=CC(=O)C=C[C@]4(C)[C@@]3(F)[C@@H](O)C[C@@]21C [Clobetasol Propionate]
- Assay (%) (in cream Batch No. SPC-01, 25° C. 60% RH, 1st Month): 107.40%
- Assay (%) (in cream Batch No. SPC-01, 25° C. 60% RH, 2nd Month): 107.34%
- Assay (%) (in cream Batch No. SPC-01, 25° C. 60% RH, 3rd Month): 107.30%
- Assay (%) (in cream Batch No. SPC-01, 25° C. 60% RH, 6th Month): 107.24%
- Assay (%) (in cream Batch No. SPC-01, 30° C. 65% RH, 1st Month): 107.38%
- Assay (%) (in cream Batch No. SPC-01, 30° C. 65% RH, 2nd Month): 107.32%
- Assay (%) (in cream Batch No. SPC-01, 30° C. 65% RH, 3rd Month): 107.29%
- Assay (%) (in cream Batch No. SPC-01, 30° C. 65% RH, 6th Month): 107.22%
- Assay (%) (in cream Batch No. SPC-01, 40° C. 75% RH, 1st Month): 107.34%
- Assay (%) (in cream Batch No. SPC-01, 40° C. 75% RH, 2nd Month): 107.22%
- Assay (%) (in cream Batch No. SPC-01, 40° C. 75% RH, 3rd Month): 107.15%
- Assay (%) (in cream Batch No. SPC-01, 40° C. 75% RH, 6th Month): 107.10%
- Assay (%) (in cream Batch No. SPC-01, Freezthaw, 1st Month): 107.11%
- Assay (%) (in cream Batch No. SPC-01, Initial): 107.41%
- Assay (%) (in cream Batch No. SPC-01, Temperature cycling, 1st Month): 107.21%

Compound: CCC(=O)OCC(=O)[C@@]1(OC(=O)CC)[C@@H](C)C[C@H]2[C@@H]3CCC4=CC(=O)C=C[C@]4(C)[C@@]3(Cl)[C@@H](O)C[C@@]21C [Beclomethasone dipropionate]
- Assay (%) (in cream Batch No. SFB-01, 25° C. 60% RH, 1st Month): 108.05%
- Assay (%) (in cream Batch No. SFB-01, 25° C. 60% RH, 2nd Month): 108.00%
- Assay (%) (in cream Batch No. SFB-01, 25° C. 60% RH, 3rd Month): 107.90%
- Assay (%) (in cream Batch No. SFB-01, 30° C. 65% RH, 1st Month): 108.11%
- Assay (%) (in cream Batch No. SFB-01, 30° C. 65% RH, 2nd Month): 107.96%
- Assay (%) (in cream Batch No. SFB-01, 30° C. 65% RH, 3rd Month): 107.68%
- Assay (%) (in cream Batch No. SFB-01, 40° C. 75% RH, 1st Month): 108.04%
- Assay (%) (in cream Batch No. SFB-01, 40° C. 75% RH, 2nd Month): 107.98%
- Assay (%) (in cream Batch No. SFB-01, 40° C. 75% RH, 3rd Month): 107.88%
- Assay (%) (in cream Batch No. SFB-01, Freezthaw, 1st Month): 107.58%
- Assay (%) (in cream Batch No. SFB-01, Initial): 108.12%
- Assay (%) (in cream Batch No. SFB-01, Temperature cycling, 1st Month): 107.68%

Compound: C[C@@H]1C[C@H]2[C@@H]3CCC4=CC(=O)C=C[C@]4(C)[C@@]3(Cl)[C@@H](O)C[C@]2(C)[C@@]1(OC(=O)c1ccco1)C(=O)CCl [Mometasone Furoate]
- Assay (%) (in cream Batch No. SFM-01, 25° C. 60% RH, 1st Month): 108.54%
- Assay (%) (in cream Batch No. SFM-01, 25° C. 60% RH, 2nd Month): 108.42%
- Assay (%) (in cream Batch No. SFM-01, 25° C. 60% RH, 3rd Month): 108.21%
- Assay (%) (in cream Batch No. SFM-01, 25° C. 60% RH, 6th Month): 107.82%
- Assay (%) (in cream Batch No. SFM-01, 30° C. 65% RH, 1st Month): 108.48%
- Assay (%) (in cream Batch No. SFM-01, 30° C. 65% RH, 2nd Month): 108.42%
- Assay (%) (in cream Batch No. SFM-01, 30° C. 65% RH, 3rd Month): 108.20%
- Assay (%) (in cream Batch No. SFM-01, 30° C. 65% RH, 6th Month): 107.75%
- Assay (%) (in cream Batch No. SFM-01, 40° C. 75% RH, 1st Month): 108.51%
- Assay (%) (in cream Batch No. SFM-01, 40° C. 75% RH, 2nd Month): 108.32%
- Assay (%) (in cream Batch No. SFM-01, 40° C. 75% RH, 3rd Month): 108.11%
- Assay (%) (in cream Batch No. SFM-01, 40° C. 75% RH, 6th Month): 107.88%
- Assay (%) (in cream Batch No. SFM-01, Freezthaw, 1st Month): 108.15%
- Assay (%) (in cream Batch No. SFM-01, Initial): 108.56%
- Assay (%) (in cream Batch No. SFM-01, Temperature cycling, 1st Month): 108.51%

Compound: CCC(=O)O[C@]1(C(=O)SCF)[C@H](C)C[C@H]2[C@@H]3C[C@H](F)C4=CC(=O)C=C[C@]4(C)[C@@]3(F)[C@@H](O)C[C@@]21C [Fluticasone Propionate]
- Assay (%) (in cream Batch No. SFC-01, 25° C. 60% RH, 1st Month): 108.54%
- Assay (%) (in cream Batch No. SFC-01, 25° C. 60% RH, 2nd Month): 108.42%
- Assay (%) (in cream Batch No. SFC-01, 25° C. 60% RH, 3rd Month): 108.21%
- Assay (%) (in cream Batch No. SFC-01, 25° C. 60% RH, 6th Month): 108.10%
- Assay (%) (in cream Batch No. SFC-01, 30° C. 65% RH, 1st Month): 108.48%
- Assay (%) (in cream Batch No. SFC-01, 30° C. 65% RH, 2nd Month): 108.42%
- Assay (%) (in cream Batch No. SFC-01, 30° C. 65% RH, 3rd Month): 108.20%
- Assay (%) (in cream Batch No. SFC-01, 30° C. 65% RH, 6th Month): 108.11%
- Assay (%) (in cream Batch No. SFC-01, 40° C. 75% RH, 1st Month): 108.51%
- Assay (%) (in cream Batch No. SFC-01, 40° C. 75% RH, 2nd Month): 108.32%
- Assay (%) (in cream Batch No. SFC-01, 40° C. 75% RH, 3rd Month): 108.11%
- Assay (%) (in cream Batch No. SFC-01, 40° C. 75% RH, 6th Month): 108.08%
- Assay (%) (in cream Batch No. SFC-01, Freezthaw, 1st Month): 108.15%
- Assay (%) (in cream Batch No. SFC-01, Initial): 108.56%
- Assay (%) (in cream Batch No. SFC-01, Temperature cycling, 1st Month): 108.51%

Compound: CC(=O)OCC(=O)[C@@]1(O)CC[C@H]2[C@@H]3CCC4=CC(=O)CC[C@]4(C)[C@H]3[C@@H](O)C[C@@]21C [Hydrocortisone Acetate]
- Assay (%) (in cream Batch No. HAS-01, 25° C. 60% RH, 1st Month): 107.14%
- Assay (%) (in cream Batch No. HAS-01, 25° C. 60% RH, 2nd Month): 107.11%
- Assay (%) (in cream Batch No. HAS-01, 25° C. 60% RH, 3rd Month): 107.10%
- Assay (%) (in cream Batch No. HAS-01, 30° C. 65% RH, 1st Month): 107.14%
- Assay (%) (in cream Batch No. HAS-01, 30° C. 65% RH, 2nd Month): 107.12%
- Assay (%) (in cream Batch No. HAS-01, 30° C. 65% RH, 3rd Month): 107.09%
- Assay (%) (in cream Batch No. HAS-01, 40° C. 75% RH, 1st Month): 107.14%
- Assay (%) (in cream Batch No. HAS-01, 40° C. 75% RH, 2nd Month): 107.12%
- Assay (%) (in cream Batch No. HAS-01, 40° C. 75% RH, 3rd Month): 107.05%
- Assay (%) (in cream Batch No. HAS-01, Freezthaw, 1st Month): 107.14%
- Assay (%) (in cream Batch No. HAS-01, Initial): 107.15%
- Assay (%) (in cream Batch No. HAS-01, Temperature cycling, 1st Month): 107.11%

Compound: CCCCC(=O)O[C@]1(C(=O)CO)[C@@H](C)C[C@H]2[C@@H]3CCC4=CC(=O)C=C[C@]4(C)[C@@]3(F)[C@@H](O)C[C@@]21C [Betamethasone Valerate]
- Assay (%) (in cream Batch No. SBV-01, 25° C. 60% RH, 1st Month): 109.54%
- Assay (%) (in cream Batch No. SBV-01, 25° C. 60% RH, 2nd Month): 109.42%
- Assay (%) (in cream Batch No. SBV-01, 25° C. 60% RH, 3rd Month): 109.21%
- Assay (%) (in cream Batch No. SBV-01, 30° C. 65% RH, 1st Month): 109.48%
- Assay (%) (in cream Batch No. SBV-01, 30° C. 65% RH, 2nd Month): 109.42%
- Assay (%) (in cream Batch No. SBV-01, 30° C. 65% RH, 3rd Month): 109.20%
- Assay (%) (in cream Batch No. SBV-01, 40° C. 75% RH, 1st Month): 109.51%
- Assay (%) (in cream Batch No. SBV-01, 40° C. 75% RH, 2nd Month): 109.32%
- Assay (%) (in cream Batch No. SBV-01, 40° C. 75% RH, 3rd Month): 109.11%
- Assay (%) (in cream Batch No. SBV-01, Freezthaw, 1st Month): 108.25%
- Assay (%) (in cream Batch No. SBV-01, Initial): 109.56%
- Assay (%) (in cream Batch No. SBV-01, Temperature cycling, 1st Month): 109.51%
